Laboratory results reported in patent publication US5691373A, “Nonpeptide endothelin antagonists I” (Warner-Lambert Company, priority 1995, dated 1997).
Like-named read-outs stand apart in the source and are kept apart here.

What was measured:
[1] = molecular target: T1, ETA (Oryctolagus cuniculus, UniProt A5A8K3)
T1 sequence (A5A8K3 21-427): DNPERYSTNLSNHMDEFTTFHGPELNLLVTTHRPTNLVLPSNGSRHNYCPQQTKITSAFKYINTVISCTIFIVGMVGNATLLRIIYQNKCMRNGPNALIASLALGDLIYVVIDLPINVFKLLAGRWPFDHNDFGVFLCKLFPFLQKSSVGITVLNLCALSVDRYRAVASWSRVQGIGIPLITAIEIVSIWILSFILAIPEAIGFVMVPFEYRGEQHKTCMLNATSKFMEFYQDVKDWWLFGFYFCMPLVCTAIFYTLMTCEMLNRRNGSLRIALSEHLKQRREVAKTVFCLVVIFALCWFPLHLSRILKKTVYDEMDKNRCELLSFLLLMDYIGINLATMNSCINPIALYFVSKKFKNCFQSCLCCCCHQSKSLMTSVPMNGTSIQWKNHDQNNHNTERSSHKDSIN
Method: The cells used were rabbit renal artery vascular smooth muscle cells grown in a 48-well dish (1 cm^2) (confluent cells).
The growth media was Dulbecco's Modified Eagles/Ham's F12 which contained 10% fetal bovine serum and antibiotics (penicillin/streptomycin/fungizone).
Second, remove the assay buffers, place the dish on ice, and add 150 μL of cold assay buffer described above to each well. […] Next, place dish in a 37° C., water bath for about 2 hours and gently agitate the dish every 15 minutes. Discard the radioactive incubation mixture in the sink and wash wells 3 times with 1 mL of cold phosphate buffered saline.

[2] = molecular target: T1, ETA; experiment: VERA-A: antagonism of ET-1 stimulated vasoconstriction in the rabbit femoral artery (ETA); format: cell-based
Method: Male New Zealand rabbits were killed by cervical dislocation and exsanguination. Femoral and pulmonary arteries were isolated, cleaned of connective tissue, and cut into 4-mm rings. The endothelium was denuded by placing the rings over hypodermic tubing (32 gauge for femoral rings and 28 gauge for pulmonary rings, Small Parts, Inc, Miami, Fla.) and gently rolling them. […] Resting tension was adjusted to 3.0 g for femoral and 4.0 g pulmonary arteries; the rings were left for 90 minutes to equilibrate.

[3] = molecular target: T2, ETB (Rattus norvegicus, UniProt P21451)
T2 sequence (P21451 27-442): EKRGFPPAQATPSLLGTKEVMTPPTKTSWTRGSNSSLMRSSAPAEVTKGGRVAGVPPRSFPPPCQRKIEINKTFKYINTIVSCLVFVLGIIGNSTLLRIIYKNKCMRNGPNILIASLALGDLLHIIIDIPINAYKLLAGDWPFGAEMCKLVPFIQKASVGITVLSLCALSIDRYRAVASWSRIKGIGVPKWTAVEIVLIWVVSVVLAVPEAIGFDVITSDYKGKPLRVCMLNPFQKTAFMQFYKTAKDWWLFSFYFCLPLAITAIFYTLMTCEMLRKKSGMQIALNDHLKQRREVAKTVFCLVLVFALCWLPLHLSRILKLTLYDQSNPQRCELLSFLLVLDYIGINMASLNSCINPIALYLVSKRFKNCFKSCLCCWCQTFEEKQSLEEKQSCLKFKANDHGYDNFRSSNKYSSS

[4] = molecular target: T1, ETA; remark: listed apart in the source
[5] = molecular target: T3, human ETB receptor (Homo sapiens, UniProt P24530); experiment: ERBA-B: [125I]-ET-1 binding, recombinant human ETB receptor expressed in CHO-K1 cells
T3 construct: expressed in transfected cells; host or cells: CHO-K1 cells, pRc-CMW (so in the source) expression vector, electroporation; membranes used
T3 sequence (P24530 27-442): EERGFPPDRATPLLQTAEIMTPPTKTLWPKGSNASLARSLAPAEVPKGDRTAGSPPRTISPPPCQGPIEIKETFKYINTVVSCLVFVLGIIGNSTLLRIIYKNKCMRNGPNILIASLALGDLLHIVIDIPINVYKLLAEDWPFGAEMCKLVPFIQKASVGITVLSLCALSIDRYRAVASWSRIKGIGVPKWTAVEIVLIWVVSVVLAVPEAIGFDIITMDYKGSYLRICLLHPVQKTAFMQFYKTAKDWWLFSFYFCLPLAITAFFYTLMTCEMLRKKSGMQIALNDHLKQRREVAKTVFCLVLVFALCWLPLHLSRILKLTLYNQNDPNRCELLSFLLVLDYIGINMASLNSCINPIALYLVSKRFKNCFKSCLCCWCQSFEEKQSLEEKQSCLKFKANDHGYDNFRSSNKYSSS

[6] = tested on: ET-1 Induced Pressor Response; experiment: inhibition of ET-1 induced pressor response in anesthetized ganglionic blocked rats; format: in vivo, rat (Sprague Dawley); details: IV, ET-1 1 nm/kg
Method: Antagonists were administered IV bolus (3, 10, 30, 100 μmol/kg, IV bolus) in separate groups of rats (5 minutes before ET-1 challenge [see Haleen, et al., J. Cardiovasc, Pharm., 22(Suppl. 8):598-5102 (1993)]). Duration of action of the antagonist was determined in conscious, chronically prepared normotensive rats. Rats were challenged with ET-1 (1.0 nmol/kg, IV bolus) on 5 consecutive days; Day =b 1 =l control and on Days 2-5 at 5, 20, 60, and 120 minutes following treatment with the antagonist. Separate groups of rats were used for each antagonist treatment.

[7] = tested on: acute renal ischemia; details: rats; cited from earlier work
[8] = tested on: cerebral vasospasm; details: cited from earlier work
[9] = tested on: cerebral vasospasm; details: rabbits with SAH; cited from earlier work
[10] = tested on: ETB; details: isolated, endothelium-intact porcine pulmonary arteries; cited from earlier work
[11] = ERBA-A IC50, [125I]-ET-1, rabbit renal artery vascular smooth muscle cells
[12] = ET-1, rabbit femoral artery, read-out: VERA-A pA2 (converted)
[13] = human cloned ETB receptor, read-out: ERBA-B IC50, human cloned receptor data
[14] = read-out: ERBA-A IC50, [125I]-ET-1, rabbit renal artery vascular smooth muscle cells
[15] = read-out: AAR-A, ET-1 (0.3 nM) stimulated arachidonic acid release

Compound | IC50 [1, 11] [nM] | Kb [2, 12] [nM] | IC50 [4] [nM] | IC50 [5, 13] [nM] | other results
COc1ccc(C2(O)OC(=O)C(c3ccc4c(c3)OCO4)=C2Cc2cccc(C(F)(F)F)c2)cc1 (stereo not shown) [Example 82, 3-Benzo[1,3]dioxol-5-yl-5-hydroxy-5-(4-methoxyphenyl)-4-(3-trifluoromethylbenzyl)-5H-furan-2-one] | 20 | 2510 | 140 | – | IC50 [3]: 1300 nM
COc1ccc(C2(O)OC(=O)C(c3ccc4c(c3)OCO4)=C2Cc2ccc(N(C)C)cc2)cc1 (stereo not shown) [Example 85, 3-Benzo[1,3]dioxol-5-yl-4-(4-dimethylaminobenzyl)-5-hydroxy-5-(4-methoxyphenyl)-5H-furan-2-one] | 23 | 398 | 200 | 1600 | –
COc1ccc(C2(O)OC(=O)C(c3ccc4c(c3)OCO4)=C2Cc2ccc(OC)c(C)c2)cc1 (stereo not shown) [Example 89, 3-Benzo[1,3]dioxol-5-yl-5-hydroxy-4-(4-methoxy-3-methylbenzyl)-5-(4-methoxyphenyl)-5H-furan-2-one] | – | – | – | – | IC50 [1, 14]: 6 nM; VERA-A pA2 ([2]; ET-1, rabbit femoral artery): 6.3; IC50 [4, 15]: 39 nM
CCCOc1cccc(CC2=C(c3cc(OC)cc(OC)c3)C(=O)OC2(O)c2ccc(OC)cc2)c1 (stereo not shown) [Example 126, 3-(3,5-Dimethoxyphenyl)-5-hydroxy-5-(4-methoxyphenyl)-4-(3-propoxybenzyl)-5 H-furan-2-one] | 10 | 200 | 86 | 1500 | –
COc1ccc(C2(O)OC(=O)C(c3cc(OC)cc(OC)c3)=C2Cc2cccc(Cl)c2)cc1 (stereo not shown) [Example 127, 4-(3-Chlorobenzyl)-3-(3,5-dimethoxyphenyl)-5-hydroxy-5-(4-methoxyphenyl)-5H -furan-2-one] | 13 | 631 | 150 | 1200 | –
COc1ccc(C2(O)OC(=O)C(c3cc(OC)cc(OC)c3)=C2Cc2cccc(C(F)(F)F)c2)cc1 (stereo not shown) [Example 128, 3-(3,5-Dimethoxyphenyl)-5-hydroxy-5-(4-methoxyphenyl)-4-(3-trifluoromethylbenzyl)-5H-furan-2-one] | 23 | 1260 | 210 | 1600 | –
COc1ccc(C2(O)OC(=O)C(c3cc(OC)cc(OC)c3)=C2Cc2cccc(OC)c2)cc1 (stereo not shown) [Example 130, 3-(3,5-Dimethoxyphenyl)-5-hydroxy-4-(3-methoxybenzyl)-5-(4-methoxyphenyl)-5 H-furan-2-one] | 97 | 200 | 30 | 1200 | –
CCCOc1cccc(CC2=C(c3ccc4c(c3)OCO4)C(=O)OC2(O)c2ccc(OC)cc2)c1 (stereo not shown) [Example 159, 3-Benzo[1,3]dioxol-5-yl-5-hydroxy-5-(4-methoxyphenyl)-4-(3-propoxybenzyl)-5 H-furan-2-one] | 12 | 100 | 36 | – | IC50 [3]: 560 nM
COc1ccc(C(=O)/C(Cc2ccccc2)=C(\C(=O)O)c2ccc3c(c2)OCO3)cc1 [Example 171, 2-Butenoic acid, 2-(1,3-benzodioxol-5-yl)-4-(4-methoxyphenyl)-4-oxo-3-(phenylmethyl)-, (Z)-, ion(1-) compd. with 2-hydroxy-N,N,N-triethanaminium (1:1)] | 39 | – | – | – | IC50 [3]: 2200 nM; % Inhibition on ET-1 Induced Pressor Response ([6]; 3 μmol/kg): 21%; % Inhibition on ET-1 Induced Pressor Response ([6]; 10 μmol/kg): 26%; % Inhibition on ET-1 Induced Pressor Response ([6]; 30 μmol/kg): 35%; % Inhibition on ET-1 Induced Pressor Response ([6]; 100 μmol/kg): 57%
COc1ccc(C2(O)OC(=O)C(c3ccc4c(c3)OCO4)=C2CC2CCCCC2)cc1 (stereo not shown) [Example 221, 3-Benzo[1,3]dioxol-5-yl-4-cyclohexylmethyl-5-hydroxy-5-(4-methoxyphenyl)-5H -furan-2-one] | – | – | – | 240 | IC50 [1, 14]: 20 nM; VERA-A pA2 ([2]; ET-1, rabbit femoral artery): 6.4; IC50 [4, 15]: 120 nM
CCCOc1cccc(C/C(C(=O)c2ccc(OC)cc2)=C(/C(=O)O)c2ccc3c(c2)OCO3)c1 [Example 253, 2-Butenoic acid, 2-(1,3-benzodioxol-5-yl)-4-(4-methoxyphenyl)-4-oxo-3-[(3-propoxyphenyl)methyl]-, (Z)-, ion(1-) compound with 2-hydroxy-N,N,N-trimethylethanaminium (1:1)] | – | – | – | 900 | IC50 [1, 14]: 17 nM; VERA-A pA2 ([2]; ET-1, rabbit femoral artery): 7.0; % Inhibition on ET-1 Induced Pressor Response ([6]; 3 μmol/kg): 22%; % Inhibition on ET-1 Induced Pressor Response ([6]; 10 μmol/kg): 42%; % Inhibition on ET-1 Induced Pressor Response ([6]; 30 μmol/kg): 53%
COc1ccc(C(=O)/C(Cc2cc(OC)c(OC)c(OC)c2)=C(\C(=O)O)c2ccc3c(c2)OCO3)cc1 [Example 354, Sodium 2-Benzo[1,3]dioxol-5-yl-4-(4-methoxy-phenyl)-4-oxo-3-(3,4,5-trimethoxy-benzyl)-but-2-enoate] | 0.8 | – | < 1 | – | Kb [2]: 31.6 nM; IC50 ([5]; ERBA-B IC50, human cloned receptor data): 910 nM
COc1ccc(C2(O)OC(=O)C(c3ccc4c(c3)OCO4)=C2Cc2ccc(NC(C)=O)cc2)cc1C (stereo not shown) [Example 384, N-{4-[4-Benzo[1,3]dioxol-5-yl-2-hydroxy-2-(4-methoxy-3-methyl-phenyl)-5-oxo-2,5-dihydro-furan-3-ylmethyl]-phenyl}-acetamide] | 1 | 50.1 | 0.21 | 760 | –
COc1ccc(C2(O)OC(=O)C(c3cc(OC)cc(OC)c3)=C2Cc2cc(OC)c(OC)c(OC)c2)cc1 (stereo not shown) [Example 388, 3-(3,5-Dimethoxy-phenyl)-5-hydroxy-5-(4-methoxyphenyl)-4-(3,4,5-trimethoxy-benzyl)-5H-furan-2-one] | 1.4 | 100 | 0.26 | 1100 | –
COc1cccc(Oc2c(NS(=O)(=O)c3ccc(C(C)(C)C)cc3)ncnc2OCCO)c1 [Ro 46-2005] | – | – | – | – | efficacy in acute renal ischemia [7]: effective in models of acute renal ischemia; systemic arterial blood pressure ([8]; rat with SAH): no significant effect on systemic arterial blood pressure; early cerebral vasospasm following SAH ([8]; rat): prevent early cerebral vasospasm following SAH; efficacy in subarachnoid hemorrhage ([8]; rats): effective in models of acute renal ischemia and subarachnoid hemorrhage
COc1ccccc1Oc1c(NS(=O)(=O)c2ccc(C(C)(C)C)cc2)nc(-c2ncccn2)nc1OCCO [Ro 47-0203, Bosentan] | – | – | – | – | reduction of basilar artery cross-sectional area compared to sham [9]: 36±7%
ET[6-21, 1,3,11,15-Ala] | – | – | – | – | vasorelaxation [10]: caused vasorelaxation
ET[8-21,11,15-Ala] | – | – | – | – | vasorelaxation [10]: caused vasorelaxation
N-Acetyl-ET[10-21,11,15-Ala] | – | – | – | – | vasorelaxation [10]: caused vasorelaxation
